Laboratory results as given in patent US11572296B1, “Method for extending time of activity of chlorite-based biocides” (priority 2020, dated 2023).

Legend:
bacteria [1] = settings: properties of oxychloro species; cited from earlier work
bacteria [2] = experiment: Antimicrobial activity of oxychloro species (general properties); settings: treated water, component of the formulation
Description: The potency and longevity of biocidal activity for this formulation is controlled by varying the ratios of chlorate and acid which provide different profiles of the antimicrobial activities.

| Molecule | Biocidal potency (bacteria [1]) | time range of antimicrobial impact / longevity (bacteria [2]) |
| --- | --- | --- |
| [O-][Cl+2]([O-])O [ClO3^−, Chlorate ion] | low | – |
| [Na+].[O-][Cl+2]([O-])[O-] [sodium chlorate] | – | weeks to months |
| Chlorine dioxide [ClO2] | – | within seconds |
| sodium chlorite | – | hours to days |
